Measured values published in US20220144823A1, “PYRAZOLOPYRIDINE DERIVATIVES AS INHIBITORS OF PASK” (Galapagos NV, priority 2019, published 2022).

Columns and labels:
human PASK = target: T1, human PASK (Homo sapiens, UniProt Q96RG2); assay: ADP-Glo kinase assay; format: biochemical; settings: ADPGlo PASK kinase assay, 25 μM ATP, ZIPtide 25 μM
T1 construct: purchased ThermoFisher Scientific PR7013A
Experimental: The ADP-Glo™ kinase assay is a luminescent technology assay which measures the ADP formed from a kinase reaction. In this specific study, the kinase reactions consisted of the phosphorylation of the ZIPtide peptide substrate by human recombinant PASK. In a second step the kinase reaction is terminated and all the remaining ATP is depleted. In a final step the ADP is converted into ATP and this newly synthesized ATP is measured by using a luciferase/luciferin reaction. The generated light is measured using an Envision plate reader, wherein the luminescent signal obtained positively correlates with the kinase activity.
The test compounds are prepared as a serial dilution of 10 point dose responses with 1/5 dilution steps in 100% DMSO starting from 2 mM highest concentration, diluted 1/20 in water and 1 μL is transferred to the assay plates (PerkinElmer Inc., Cat #6007290).
1% DMSO and 10 μM staurosporine final concentrations are used respectively as negative and positive controls.
2 μL enzyme-substrate mixture is added to the assay plates.
The reaction is started by adding 2 μL diluted ATP on the assay plates immediately after addition of the enzyme-substrate mixture to the compound. Plates are centrifuged for a few seconds at 1000 rpm and gently shaken for 2 min followed by an incubation at RT for 120 min.
The reactions are stopped and the unconsumed ATP is depleted by adding 5 μL ADP-Glo Reagent (Promega, Cat #V912B) to the reaction. The plates are centrifuged for a few seconds at 1000 rpm and incubated at RT for 40 min (ATP depletion).
The ADP is converted to ATP and luciferase and luciferin is introduced to detect ATP by adding 10 μL Kinase Detection Reagent (Promega, Cat #V913B+V914B) to the reaction. The plates are centrifuged for a few seconds at 1000 rpm and incubated at RT for 30 min (ADP detection).
Luminescence is measured on an Envision plate reader (PerkinElmer Inc.).
Raw data are generated following the read-out performed on the Envision plate reader, used to calculate percentage inhibition (PIN) values and plotted to generate dose response curves and derive the average half maximal inhibitory concentrations (IC50) reported in Table VIII.

[1] = tested on: diabetic non human primates (NHPs) under a high-calorie diet (HCD); assay: Diabetic monkey model;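 also: male obese diabetic cynomolgus monkeys fed a high-fat, high-fructose diet, randomized into 4 groups, dosed with test compound for 8 weeks, then a 4-week washout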
Experimental: The aim of this assay is to determine the effect of a test compound on lipid metabolism and glucose handling in diabetic non human primates (NHPs) under a high-calorie diet (HCD) consisting of high-fat and high-fructose.
Male obese diabetic cynomolgus monkeys were selected based on their body weights, glucose, insulin levels, and blood lipid parameters. The inclusion criteria were the following: age ≤22 years; fasted plasma glucose between 120 and 300 mg/dL; triglycerides >125 mg/dL, and insulin >75 mIU/mL.
The animals are maintained at 20-23° C. and 40-70% humidity on a 12 h light/dark cycle (7 AM-7 PM). Water is provided ad libitum and the animals are fed twice daily with the high-calorie diet (HCD) enriched with seasonal fruits or vegetables.
After the baseline period, animals were randomized into 4 groups according to body weight, as well as their blood glucose and lipid parameters.
The following parameters were measured once per week during the 8 weeks of treatment and also during the 4 weeks of washout: • body weight • food consumption • blood chemistry (fasted blood glucose, plasma triglycerides, plasma total cholesterol, low density lipoproteins (LDL), and high density lipoproteins (HDL))
Oral glucose tolerance was measured in fasted animals before treatment initiation (baseline), at the end of the treatment period (week 8), and after 4 weeks of washout (week 12).

[2] = week 1, treatment, metformin 25 mg/kg b.i.d., Cpd 18 30 mg/kg q.d., p.o.
[3] = week 2, treatment, metformin 25 mg/kg b.i.d., Cpd 18 30 mg/kg q.d., p.o.
[4] = week 3, treatment, metformin 25 mg/kg b.i.d., Cpd 18 30 mg/kg q.d., p.o.
[5] = week 4, treatment, metformin 25 mg/kg b.i.d., Cpd 18 30 mg/kg q.d., p.o.
[6] = week 9, washout without treatment
[7] = week 10, washout without treatment
[8] = week 11, washout without treatment
[9] = week 12, washout without treatment

T1 sequence (Q96RG2 whole entry): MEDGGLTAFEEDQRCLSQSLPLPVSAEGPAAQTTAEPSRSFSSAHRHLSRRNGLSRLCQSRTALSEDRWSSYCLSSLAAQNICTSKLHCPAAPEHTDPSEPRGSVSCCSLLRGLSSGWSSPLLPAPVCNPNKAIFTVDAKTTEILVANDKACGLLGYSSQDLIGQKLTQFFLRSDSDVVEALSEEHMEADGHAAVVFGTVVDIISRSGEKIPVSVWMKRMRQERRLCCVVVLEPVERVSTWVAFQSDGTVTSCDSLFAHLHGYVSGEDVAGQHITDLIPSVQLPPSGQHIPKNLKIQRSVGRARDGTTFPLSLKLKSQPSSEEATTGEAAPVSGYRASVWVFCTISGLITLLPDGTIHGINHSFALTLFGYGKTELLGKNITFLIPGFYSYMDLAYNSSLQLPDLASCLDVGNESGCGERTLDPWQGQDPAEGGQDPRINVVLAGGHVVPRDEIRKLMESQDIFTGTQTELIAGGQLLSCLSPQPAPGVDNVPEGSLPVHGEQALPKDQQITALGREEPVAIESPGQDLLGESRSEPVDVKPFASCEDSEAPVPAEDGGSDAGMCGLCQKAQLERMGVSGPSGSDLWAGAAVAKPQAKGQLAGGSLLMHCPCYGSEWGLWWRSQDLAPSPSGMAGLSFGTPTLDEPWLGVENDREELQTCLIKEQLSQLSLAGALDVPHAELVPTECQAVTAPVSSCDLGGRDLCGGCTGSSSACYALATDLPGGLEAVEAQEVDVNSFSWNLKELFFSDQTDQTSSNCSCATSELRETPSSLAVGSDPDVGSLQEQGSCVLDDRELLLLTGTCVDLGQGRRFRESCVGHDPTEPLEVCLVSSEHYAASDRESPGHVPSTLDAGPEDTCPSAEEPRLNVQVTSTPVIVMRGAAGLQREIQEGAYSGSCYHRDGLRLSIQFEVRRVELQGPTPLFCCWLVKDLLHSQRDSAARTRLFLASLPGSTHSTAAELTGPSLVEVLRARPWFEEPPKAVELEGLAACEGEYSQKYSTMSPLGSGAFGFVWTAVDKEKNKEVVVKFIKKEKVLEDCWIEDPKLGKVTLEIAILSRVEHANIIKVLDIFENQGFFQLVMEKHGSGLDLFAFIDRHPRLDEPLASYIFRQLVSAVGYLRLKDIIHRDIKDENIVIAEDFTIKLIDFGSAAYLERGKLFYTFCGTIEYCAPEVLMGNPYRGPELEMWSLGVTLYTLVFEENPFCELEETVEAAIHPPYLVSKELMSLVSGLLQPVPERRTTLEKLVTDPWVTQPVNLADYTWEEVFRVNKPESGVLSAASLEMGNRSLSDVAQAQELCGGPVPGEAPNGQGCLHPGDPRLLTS

SMILES | IC50 (human PASK) | also measured
Cc1noc(C)c1-c1cnn2ccc(-c3nc(OC4COC4)c(C(=O)O)s3)cc12 [Cpd 58, 2-[3-(3,5-dimethylisoxazol-4-yl)pyrazolo[1,5-a]pyridin-5-yl]-4-(oxetan-3-yloxy) thiazole-5-carboxylic acid] | 0.01 to 10 nM | –
Cc1noc(C)c1-c1cnn2ccc(-n3cc(C(=O)O)cn3)cc12 [Cpd 47, 1-[3-(3,5-dimethylisoxazol-4-yl)pyrazolo[1,5-a]pyridin-5-yl]pyrazole-4-carboxylic acid] | 10 to 100 nM | –
CCOC(=O)c1sc(-c2ccn3ncc(-c4c(C)nn(C)c4C)c3c2)nc1OCC [Cpd 88, ethyl 4-ethoxy-2-[3-(1,3,5-trimethylpyrazol-4-yl)pyrazolo[1,5-a]pyridin-5-yl]thiazole-5-carboxylate] | 100 to 500 nM | –
Cc1nn(CC(F)(F)F)c(C)c1-c1cnn2ccc(-c3cc(C(=O)O)c(C4=CCOCC4)o3)cc12 [Cpd 53, 2-(3,6-dihydro-2H-pyran-4-yl)-5-[3-[3,5-dimethyl-1-(2,2,2-trifluoroethyl)pyrazol-4-yl]pyrazolo[1,5-a]pyridin-5-yl]furan-3-carboxylic acid] | 0.01 to 10 nM | –
Cc1noc(C)c1-c1cnn2ccc(-c3nc(OC(F)F)c(C(=O)O)s3)cc12 [Cpd 61, 4-(difluoromethoxy)-2-[3-(3,5-dimethylisoxazol-4-yl)pyrazolo[1,5-a]pyridin-5-yl]thiazole-5-carboxylic acid] | 0.01 to 10 nM | –
CCOC(=O)c1sc(-c2ccn3ncc(-c4c(C)nn(C)c4C)c3c2)nc1OC [Cpd 87, ethyl 4-methoxy-2-[3-(1,3,5-trimethylpyrazol-4-yl)pyrazolo[1,5-a]pyridin-5-yl]thiazole-5-carboxylate] | 100 to 500 nM | –
Cc1c(-c2cnn3ccc(-c4nc(C(=O)O)co4)cc23)c(C(F)(F)F)nn1C [Cpd 57, 2-[3-[1,5-dimethyl-3-(trifluoromethyl)pyrazol-4-yl]pyrazolo[1,5-a]pyridin-5-yl]oxazole-4-carboxylic acid] | 0.01 to 10 nM | –
Cc1nn(C(C)C)c(C)c1-c1cnn2ccc(-c3ccc(C(=O)O)o3)cc12 [Cpd 48, 5-[3-(1-isopropyl-3,5-dimethyl-pyrazol-4-yl)pyrazolo[1,5-a]pyridin-5-yl]furan-2-carboxylic acid] | 0.01 to 10 nM | –
COc1nn(-c2ccn3ncc(-c4c(C)noc4C)c3c2)cc1C(=O)O [Cpd 63, 1-[3-(3,5-dimethylisoxazol-4-yl)pyrazolo[1,5-a]pyridin-5-yl]-3-methoxy-pyrazole-4-carboxylic acid] | 10 to 100 nM | –
Cc1nn(CC(F)(F)F)c(C)c1-c1cnn2ccc(-n3cc(C(=O)O)c(C(F)(F)F)n3)cc12 [Cpd 81, 1-[3-[3,5-dimethyl-1-(2,2,2-trifluoroethyl)pyrazol-4-yl]pyrazolo[1,5-a]pyridin-5-yl]-3-(trifluoromethyl)pyrazole-4-carboxylic acid] | 0.01 to 10 nM | –
CCn1nc(C)c(-c2cnn3ccc(-n4cc(C(=O)O)c(OC)n4)cc23)c1C [Cpd 75, 1-[3-(1-ethyl-3,5-dimethyl-pyrazol-4-yl)pyrazolo[1,5-a]pyridin-5-yl]-3-methoxy-pyrazole-4-carboxylic acid] | 0.01 to 10 nM | –
COCCOc1nc(-c2ccn3ncc(-c4c(C)noc4C)c3c2)sc1C(=O)O [Cpd 59, 2-[3-(3,5-dimethylisoxazol-4-yl)pyrazolo[1,5-a]pyridin-5-yl]-4-(2-methoxyethoxy) thiazole-5-carboxylic acid] | 0.01 to 10 nM | –
Cc1nn(C)c(C)c1-c1cnn2ccc(-n3cc(C(=O)O)cn3)cc12 [Cpd 73, 1-[3-(1,3,5-trimethylpyrazol-4-yl)pyrazolo[1,5-a]pyridin-5-yl]pyrazole-4-carboxylic acid] | 0.01 to 10 nM | –
Cc1nn(C(F)F)c(C)c1-c1cnn2ccc(-c3ccc(C(=O)O)o3)cc12 [Cpd 51, 5-[3-[1-(difluoromethyl)-3,5-dimethyl-pyrazol-4-yl]pyrazolo[1,5-a]pyridin-5-yl]furan-2-carboxylic acid] | 0.01 to 10 nM | –
COc1nn(-c2ccn3ncc(-c4c(C)nn(C(F)F)c4C)c3c2)cc1C(N)=O [Cpd 83, 1-[3-[1-(difluoromethyl)-3,5-dimethyl-pyrazol-4-yl]pyrazolo[1,5-a]pyridin-5-yl]-3-methoxy-pyrazole-4-carboxamide] | 0.01 to 10 nM | –
Cc1nn(C(F)F)c(C)c1-c1cnn2ccc(-c3ncc(C(=O)O)o3)cc12 [Cpd 49, 2-[3-[1-(difluoromethyl)-3,5-dimethyl-pyrazol-4-yl]pyrazolo[1,5-a]pyridin-5-yl]oxazole-5-carboxylic acid] | 0.01 to 10 nM | –
Cc1nn(CC(F)(F)F)c(C)c1-c1cnn2ccc(-c3cc(C(=O)O)c(C4CCOCC4)o3)cc12 [Cpd 55, 5-[3-[3,5-dimethyl-1-(2,2,2-trifluoroethyl)pyrazol-4-yl]pyrazolo[1,5-a]pyridin-5-yl]-2-tetrahydropyran-4-yl-furan-3-carboxylic acid] | 0.01 to 10 nM | –
CCOCCOc1nc(-c2ccn3ncc(-c4c(C)noc4C)c3c2)sc1C(=O)O [Cpd 60, 2-[3-(3,5-dimethylisoxazol-4-yl)pyrazolo[1,5-a]pyridin-5-yl]-4-(2-ethoxyethoxy) thiazole-5-carboxylic acid] | 0.01 to 10 nM | –
CN(C)C(=N)N=C(N)N [metformin, reference compound] | – | Bodyweight change (% change from baseline) [1, 2]: 1.0%; HbA1c change (% change from baseline) [1, 2]: −2.8%; Bodyweight change (% change from baseline) [1, 3]: −0.7%; HbA1c change (% change from baseline) [1, 3]: −12.3%; Bodyweight change (% change from baseline) [1, 4]: −1.3%; HbA1c change (% change from baseline) [1, 4]: −17.2%; Bodyweight change (% change from baseline) [1, 5]: −5.2%; HbA1c change (% change from baseline) [1, 5]: −18.9%; Bodyweight change (% change from baseline) [1, 6]: −6.5%; HbA1c change (% change from baseline) [1, 6]: −24.1%; Bodyweight change (% change from baseline) [1, 7]: −7.3%; HbA1c change (% change from baseline) [1, 7]: −23.5%; Bodyweight change (% change from baseline) [1, 8]: −6.3%; HbA1c change (% change from baseline) [1, 8]: −30.1%; Bodyweight change (% change from baseline) [1, 9]: −6.1%; HbA1c change (% change from baseline) [1, 9]: −28.6%
Cc1nn(C)c(C)c1-c1cnn2ccc(-c3cc(C(=O)OCOC(=O)C(C)(C)C)co3)cc12 [Cpd 13, 2,2-dimethylpropanoyloxymethyl 5-[3-(1,3,5-trimethylpyrazol-4-yl)pyrazolo[1,5-a]pyridin-5-yl]furan-3-carboxylate] | 100 to 500 nM | –
Cc1nn(C(C)C)c(C)c1-c1cnn2ccc(-n3cc(C(=O)O)c(C(F)(F)F)n3)cc12 [Cpd 80, 1-[3-(1-isopropyl-3,5-dimethyl-pyrazol-4-yl)pyrazolo[1,5-a]pyridin-5-yl]-3-(trifluoromethyl)pyrazole-4-carboxylic acid] | 10 to 100 nM | –
Cn1cc(-c2cnn3ccc(-c4cc(C(=O)O)co4)cc23)c(C(F)(F)F)n1 [Cpd 10, 5-[3-[1-methyl-3-(trifluoromethyl)pyrazol-4-yl]pyrazolo[1,5-a]pyridin-5-yl]furan-3-carboxylic acid] | 0.01 to 10 nM | –
Cc1c(-c2cnn3ccc(-c4cc(C(=O)O)co4)cc23)cnn1C [Cpd 12, 5-[3-(1,5-dimethylpyrazol-4-yl)pyrazolo[1,5-a]pyridin-5-yl]furan-3-carboxylic acid] | 0.01 to 10 nM | –
Cc1nn(C(F)F)c(C)c1-c1cnn2ccc(-c3cc(C(=O)O)c(C4=CCOCC4)o3)cc12 [Cpd 54, 5-[3-[1-(difluoromethyl)-3,5-dimethyl-pyrazol-4-yl]pyrazolo[1,5-a]pyridin-5-yl]-2-(3,6-dihydro-2H-pyran-4-yl)furan-3-carboxylic acid] | 0.01 to 10 nM | –
Cc1noc(C)c1-c1cnn2ccc(-c3nc(OC(C)C)c(C(=O)O)s3)cc12 [Cpd 56, 2-[3-(3,5-dimethylisoxazol-4-yl)pyrazolo[1,5-a]pyridin-5-yl]-4-isopropoxy-thiazole-5-carboxylic acid] | 0.01 to 10 nM | –
Cc1nn(C(C)C)c(C)c1-c1cnn2ccc(-n3cc(C(=O)O)cn3)cc12 [Cpd 52, 1-[3-(1-isopropyl-3,5-dimethyl-pyrazol-4-yl)pyrazolo[1,5-a]pyridin-5-yl]pyrazole-4-carboxylic acid] | 0.01 to 10 nM | –
